Data set [1] is classed as physicochemical. As to conditions: for native molecule (cloxacillin) found after heating: 31 h at 75° C. The procedure:
Cloxacillin (molecular mass 475.88) is an antibiotic of β-lactam type, used to inhibit the growth of certain bacterial species such as Enterobacter aerogenes or Escherichia coli. The cyclodextrins of the BioCydex library were incubated with cloxacillin in a 1:1 molar ratio (concentration=210.12 mM), at 20° C. for 72 h (shaking in the dark). The amount of residual cloxacillin was then analyzed by HPLC.
The following tests were carried out in an aqueous medium and at high temperature (75° C.) in order to accelerate the rate of degradation.
The complexes were prepared at ambient temperature with cloxacillin:cyclodextrin molar ratios of 1:16 and of 1:79. The solutions containing 0.63 mM, i.e. 300 mg·L^−1, of cloxacillin were incubated at 75° C. for 31 h. The analysis of the samples and the quantification thereof so as to evaluate the stability of the antibiotic were carried out on a Thermo Finnigan SpectraSYSTEM HPLC system equipped with a P1000XR pump, an AS3000 automatic injector, a UV1000 UV/visible detector, and a Merck Chromolith® Performance RP-18 endcapped column (100-4.6 mm) preceded by a Merck Chromolith® RP-18e guard column (5-4.6 mm).
The mobile phases were prepared using HPLC-grade acetonitrile and water acidified with trifluoroacetic acid (100 μL/L). A methanol/water gradient of 0/100 to 100/0 was applied in 12 min. After stabilization for 2 min, the column is reequilibrated under the initial conditions. The elution speed is 1 mL/min, the temperature is 22° C. and the detection is carried out at 220 nm. The sample injection volume is 20 μL. The chromatographic data were processed using the Atlas software, version 2003.1 (Thermo Electron Corporation, UK).

Data set [2] in a line: Stability of cefoxitin in the presence of cyclodextrins at 65° C. (HPLC). In kind it is physicochemical. The procedure:
0.444 mM of cefoxitin (Sigma, Ref. C4786-5G) and 8.88 mM of cyclodextrin (ACD N0 or GCD NO or BCD R59 or BCD C15), i.e. in a molar ratio of 1:20, were dissolved with stirring for one hour at ambient temperature. The mixture was then brought to 65° C. for 90 min. The integrity of the cefoxitin was then analyzed by HPLC. The analysis of the samples and the quantification thereof were carried out on a Thermo Finnigan SpectraSYSTEM HPLC system equipped with a P1000XR pump, an AS3000 automatic injector, a UV1000 UV/visible detector, and a Merck Chromolith® Performance RP-18 endcapped column (100-4.6 mm) preceded by a Merck Chromolith® RP-18e guard column (5-4.6 mm).
The mobile phases were prepared using HPLC-grade acetonitrile and water acidified with trifluoroacetic acid (100 μL/L). A methanol/water gradient of 0/100 to 100/0 was applied in 12 min. After stabilization for 2 min, the column is reequilibrated under the initial conditions. The elution speed is 1 mL/min, the temperature is 22° C. and the detection is carried out at 254 nm. The sample injection volume is 20 μL. The chromatographic data were processed using the Atlas software, version 2003.1 (Thermo Electron Corporation, UK).
The optimization of protection was sought by varying the cefoxitin:cyclodextrin (BCD R59 and BCD C15) molar ratio from 1:1 to 1:216, the other conditions remaining unchanged. […] The improvement in stability was calculated relative to the control without cyclodextrin.

The test system of data set [3] is β-lactamase. Description: β-lactamase resistance to heat degradation (residual amoxicillin by HPLC). As to conditions: for [Amoxicillin] (arbitrary units): amoxicillin 500 mg·L^−1, 5 min at 25° C.
Protocol: β-Lactamase (Genzyme Biochemicals Ref. BELA-70-1431) in an amount equivalent to 0.375 U·mL^−1 was mixed with the cyclodextrin BCD A56 of the Protéosol® range (1 or 10 mM), at ambient temperature and in the dark, for 30 min. The mixture was then heated at 70° C. for 45 min. […] After incubation for 5 min at 25° C., the residual amoxicillin was analyzed by HPLC.
On the basis of the above profiles, it was possible to quantify the concentration of amoxicillin and to link this value to the β-lactamase activity.
The mark [4] stands for this setting: cloxacillin complexed with cyclodextrin.

Where two headings read alike, the source gives them in different places.

On to “randomly 2,3,6-O-(2-hydroxypropyl)cyclomaltoheptaose [BCD R59]”, for which, in data set [1] (setting [4]), the “native molecule (cloxacillin) found after heating” value (“native molecule” below) came to 40%.
Turning to `Cc1onc(-c2ccccc2Cl)c1C(=O)N[C@@H]1C(=O)N2[C@@H]1SC(C)(C)[C@@H]2C(=O)O` [cloxacillin, reference compound], the “Cloxacillin stability (%)” value in data set [1] (31 h, 0.63 mM) was found to be 0.6%. Besides, the “native molecule” value in data set [1] (cloxacillin not associated with cyclodextrin) is reported as 0%.
`CO[C@@]1(NC(=O)Cc2cccs2)C(=O)N2C(C(=O)O)=C(COC(N)=O)CS[C@@H]21` [cefoxitin, reference compound]: in data set [2] (cefoxitin:cyclodextrin molar ratio 1:50, 90 min at 65° C.), the stability of cefoxitin is reported as 47.5%. In data set [2] (no cyclodextrin, 0.444 mM cefoxitin, 65° C. for 90 min), the Cefoxitin stability/% amounted to 38.5%.
For the molecule “6^I-(3-aminopropylamino)-6^I-deoxycyclomaltoheptaose [BCD A56]”, in data set [3] (BCD A56 at 10 mM, reference: absence of cyclodextrin), the “protection of the β-lactamase against heat” value is recorded as “excellent protection”. Besides, in data set [3] (β-lactamase + BCD A56), the “interaction with the active site of the enzyme” value is on record as “did not interact”. In addition, the “[Amoxicillin] (arbitrary units)” value in data set [3] (β-lactamase heated 70° C. 45 min + BCD A56 at 1 mM) amounted to 4.3 arbitrary units; in data set [3] (β-lactamase heated 70° C. 45 min + BCD A56 at 10 mM), 0.8 arbitrary units.
With “randomly 2-O-methyl-cyclomaltoheptaose [BCD C15]”, the “protection of cloxacillin against heat degradation, comparison of cyclodextrins” value in data set [1] is “best protection”. In data set [1] (setting [4]), the “native molecule” value is given as 40%. Further, in data set [2], the “complexed antibiotic (cefoxitin) less degraded than the molecule alone” value was “approximately 10%”. In data set [2] (molar ratios between 1:6 and 1:30, FIG. 2), the “protection of cefoxitin, comparison of BCD R59 and BCD C15” value is given as “most effective”.

The values are drawn from patent US20100120084A1, “REACTION MEDIUM FOR IDENTIFYING/DETECTING MICROORGANISMS” (Biomerieux, priority 2007, published 2010).
